In US20250296971A1, “GASTRIC INHIBITORY PEPTIDE RECEPTOR LIGANDS” (priority 2021, published 2025):
Where two headings read alike, the source gives them in different places. *1 amine or outer side, *2 acyl side, *3 side chain or, on linkers, in order; H or OH if unused. Where a SMILES comes first, the peptide text is derived from it. Bridges are numbered along the chain shown (N, C = ends). [ ]: non-standard residue; d: D form. The star is where a group is joined. X5 = NC(=O)[C@H](CCCCNC(=O)CN1CCN(CC(=O)O)CCN(CC(=O)O)CCN(CC(=O)O)CC1)NC(=O)CCC(=O)NCCCOCCOCCOCCCN*; X19 = O=C(O)CN1CCN(CC(=O)O)CCN(CC(=O)N2CCN(Cc3cc(C[*:1])cc(C[*:2])c3)CC2)CCN(CC(=O)O)CC1; NH(1-deoxy-D-glucityl) = OC[C@@H](O)[C@@H](O)[C@H](O)[C@@H](O)CN*; DOTA = O=C(O)CN1CCN(CC(=O)O)CCN(CC(=O)*)CCN(CC(=O)O)CC1; Trp(5-Cl) = N[C@@H](Cc1c[nH]c2ccc(Cl)cc12)C(=O)O; Pyridine(2,6-diCH2) = c1cc(C[*:1])nc(C[*:2])c1; Pro(4R-NH2) = N[C@H]1CN[C@H](C(=O)O)C1; 1Nal = N[C@@H](Cc1cccc2ccccc12)C(=O)O; mXylylene = c1cc(C[*:1])cc(C[*:2])c1; Bta = N[C@@H](Cc1csc2ccccc12)C(=O)O; Glutaryl = O=C(CCCC(=O)[*:2])[*:1]; Hyp = O=C(O)[C@@H]1C[C@@H](O)CN1; X1 = O=C(CN1CCC(N[*:1])CC1)[*:2]; dDab = NCC[C@@H](N)C(=O)O; Nle = CCCC[C@H](N)C(=O)O; Thp = NC1(C(=O)O)CCOCC1; Aib = CC(C)(N)C(=O)O

Biological target: T1, GIPR (CHO-K1-hGIPR cells) (Homo sapiens, UniProt P48546)
T1 construct: host or cells: CHO-K1
T1 sequence (P48546 22-466): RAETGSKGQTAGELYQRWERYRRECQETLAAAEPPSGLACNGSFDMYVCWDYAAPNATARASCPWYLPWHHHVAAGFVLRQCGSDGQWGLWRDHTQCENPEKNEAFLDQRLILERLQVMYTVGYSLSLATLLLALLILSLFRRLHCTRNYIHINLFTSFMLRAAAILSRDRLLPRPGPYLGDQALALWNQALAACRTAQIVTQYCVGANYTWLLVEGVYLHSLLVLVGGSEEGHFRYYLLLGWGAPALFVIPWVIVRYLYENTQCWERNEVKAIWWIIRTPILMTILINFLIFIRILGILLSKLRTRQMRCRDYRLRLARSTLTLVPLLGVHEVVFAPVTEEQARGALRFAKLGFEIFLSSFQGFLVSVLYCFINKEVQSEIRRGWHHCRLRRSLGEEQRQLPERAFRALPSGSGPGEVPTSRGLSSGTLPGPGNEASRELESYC
Test: FACS binding assay
Settings: read-out: pIC50 Category (converted)
Outline: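 Median fluorescence in the APC channel, measured on washed CHO-K1 cells overexpressing human GIPR, was fitted by four-parameter logistic regression against peptide concentration to yield EC50 or IC50 values. Secondary labelling used APC-streptavidin (1 μg/mL, 30 min, ice).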

[1] = competition with 20 nM GIP-057, 4° C. for 1 hour
[2] = competition with 20 nM GIP-057, 4° C., 1 hour

Compound	IC50 [1]	IC50 [2]
CC[C@H](C)[C@@H]1NC(=O)[C@H](CC(C)C)NC(=O)C2(CCOCC2)NC(=O)[C@@H](NC(=O)[C@@H](CC(C)C)NC(=O)[C@H](CCC(=O)O)NC(=O)[C@@H]2C[C@@H](O)CN2C(=O)[C@H](Cc2c[nH]c3ccc(Cl)cc23)NC(=O)[C@H](Cc2c[nH]c3ccccc23)NC(=O)[C@H](CC(=O)O)NC(C)=O)CSCc2cc(cc(CN3CCN(C(=O)CN4CCN(CC(=O)O)CCN(CC(=O)O)CCN(CC(=O)O)CC4)CC3)c2)CSC[C@@H](C(N)=O)NC1=O [GIP-145, Ac-Asp-Trp-5Clw-Hyp-Glu-leu-[Cys(tMeBn(DOTA-PP))-Thp-Leu-Ile-Cys]-NH2] (Ac-DW[Trp(5-Cl)][Hyp]E[dL]C[Thp]LIC-NH2; linker 7-11 via X19)		10 to 79.4 nM
CC[C@H](C)[C@@H]1NC(=O)[C@H](CC(C)C)NC(=O)C(C)(C)NC(=O)[C@@H](NC(=O)[C@H](CC(C)C)NC(=O)[C@H](CCC(=O)O)NC(=O)[C@@H]2CCCN2C(=O)[C@H](Cc2cccc3ccccc23)NC(=O)[C@H](Cc2c[nH]c3ccccc23)NC(=O)[C@H](CC(=O)O)NC(C)=O)CSCc2cccc(c2)CSC[C@@H](C(=O)NCCCOCCOCCOCCCNC(=O)CCC(=O)N[C@@H](CCCCNC(=O)CN2CCN(CC(=O)O)CCN(CC(=O)O)CCN(CC(=O)O)CC2)C(N)=O)NC1=O [GIP-074, Ac-Asp-Trp-1Ni-Pro-Glu-Leu-[Cys(3MeBn)-Aib-Leu-Ile-Cys]-Ttds-Lys(DOTA)-NH2] (Ac-DW[1Nal]PELC[Aib]LIC-X5; linker 7-11 via mXylylene)		< 10 nM
CC[C@H](C)[C@@H]1NC(=O)[C@H](CC(C)C)NC(=O)[C@@H](CCNC(=O)CN2CCN(CC(=O)O)CCN(CC(=O)O)CCN(CC(=O)O)CC2)NC(=O)[C@@H](NC(=O)[C@@H](CC(C)C)NC(=O)[C@H](CCC(=O)O)NC(=O)[C@@H]2C[C@@H](N)CN2C(=O)[C@H](Cc2c[nH]c3ccc(Cl)cc23)NC(=O)[C@H](Cc2c[nH]c3ccccc23)NC(=O)[C@H](CC(=O)O)NC(=O)CCCC(=O)NC[C@H](O)[C@@H](O)[C@H](O)[C@H](O)CO)CSCc2cccc(n2)CSC[C@@H](C(=O)NC2CCN(CC(=O)N[C@H](CCC(=O)NC[C@H](O)[C@@H](O)[C@H](O)[C@H](O)CO)C(N)=O)CC2)NC1=O [GIP-027, AGLU-Glutar-Asp-Trp-5Clw-Tap-Glu-leu-[Cys(2Lut)-dab(DOTA)-Leu-Ile-Cys]-APAc-glu(AGLU)-NH2] ({NH(1-deoxy-D-glucityl)-Glutaryl}-DW[Trp(5-Cl)][Pro(4R-NH2)]E[dL]C[dDab](DOTA)LIC[X1][dE](NH(1-deoxy-D-glucityl))-NH2; linker 7-11 via Pyridine(2,6-diCH2))		10 to 79.4 nM

The remaining lines, values ahead:

IC50 [1]	IC50 [2]	Compound
100 to 794 nM		CC[C@H](C)[C@@H]1NC(=O)[C@H](CC(C)C)NC(=O)C(C)(C)NC(=O)[C@@H](NC(=O)[C@H](CC(C)C)NC(=O)[C@H](CCC(=O)O)NC(=O)[C@@H]2CCCN2C(=O)[C@H](Cc2c[nH]c3ccccc23)NC(=O)[C@H](Cc2csc3ccccc23)NC(=O)[C@H](CC(=O)O)NC(C)=O)CSCc2cccc(c2)CSC[C@@H](C(=O)NCCCOCCOCCOCCCNC(=O)CCC(=O)N[C@@H](CCCCNC(=O)CN2CCN(CC(=O)O)CCN(CC(=O)O)CCN(CC(=O)O)CC2)C(N)=O)NC1=O [GIP-273, Ac-Asp-Bta-Trp-Pro-Glu-Leu-[Cys(3MeBn)-Aib-Leu-Ile-Cys]-Ttds-Lys(DOTA)-NH2] (Ac-D[Bta]WPELC[Aib]LIC-X5; linker 7-11 via mXylylene)
	< 10 nM	CC[C@H](C)[C@@H]1NC(=O)[C@H](CC(C)C)NC(=O)C2(CCOCC2)NC(=O)[C@@H](NC(=O)[C@@H](CC(C)C)NC(=O)[C@H](CCC(=O)O)NC(=O)[C@@H]2C[C@@H](O)CN2C(=O)[C@H](Cc2c[nH]c3ccc(Cl)cc23)NC(=O)[C@H](Cc2c[nH]c3ccccc23)NC(=O)[C@H](CC(=O)O)NC(C)=O)CSCc2cccc(n2)CSC[C@@H](C(N)=O)NC1=O [GIP-180, Ac-Asp-Trp-5Clw-Hyp-Glu-leu-[Cys(2Lut)-Thp-Leu-Ile-Cys]-NH2] (Ac-DW[Trp(5-Cl)][Hyp]E[dL]C[Thp]LIC-NH2; linker 7-11 via Pyridine(2,6-diCH2))
> 1000 nM		CCCC[C@H](NC(=O)[C@H](CCC(=O)O)NC(=O)[C@@H]1CCCN1C(=O)[C@H](Cc1cccc2ccccc12)NC(=O)[C@H](Cc1c[nH]c2ccccc12)NC(=O)[C@H](CC(=O)O)NC(C)=O)C(=O)N[C@H]1CSCc2cccc(c2)CSC[C@@H](C(N)=O)NC(=O)[C@H]([C@@H](C)CC)NC(=O)[C@H](CC(C)C)NC(=O)C(C)(C)NC1=O [GIP-346, Ac-Asp-Trp-1Ni-Pro-Glu-Nle-[Cys(3MeBn)-Aib-Leu-Ile-Cys]-NH2] (Ac-DW[1Nal]PE[Nle]C[Aib]LIC-NH2; linker 7-11 via mXylylene)
